Data set [1] has as its system 4TO7. The data set is described as follows: Inhibition of class 1 HDAC in mouse 4TO7 cells assessed as induction of H3K9 acetylation at 10 uM measured after 6 hrs by Western blot analysis. In kind it is cell-based.
The nature of data set [2]: Toxicity in mouse B16-F10 cells implanted C57BL/6 mouse assessed as effect on body weight at 5 mg/kg, ip administered daily for 28 days. To be noted: in vivo, time 28 day. In kind it is organism-based.
A short description of data set [3]: Toxicity in mouse B16-F10 cells implanted C57BL/6 mouse at 5 mg/kg, ip administered daily for 28 days. In kind it is organism-based. To be noted: in vivo, time 28 day.
Data set [4] in a line: Toxicity in 4T1 cells implanted BALB/c mouse assessed as body weight loss at 1.5 to 5 mg/kg, ip administered daily for 18 days. Type of data set: organism-based. To be noted: in vivo, 432 h, dose 1.5-5 mg/kg, time 18 day.
Data set [5] relates to Mus musculus. The data set is described as follows: Immunomodulatory activity in mouse 4T1 cells implanted BALB/c mouse assessed as reduction in Ccl5 gene expression at 1.5 to 5 mg/kg, ip administered daily for 18 days by RT-qPCR analysis. In kind it is functional, organism-based. To be noted: dose 1.5-5 mg/kg, time 18.0 day.
The target of data set [6] is T1, Protein deacetylase HDAC6 (Mus musculus) (UniProt Q9Z2V5).
T1 sequence (whole entry): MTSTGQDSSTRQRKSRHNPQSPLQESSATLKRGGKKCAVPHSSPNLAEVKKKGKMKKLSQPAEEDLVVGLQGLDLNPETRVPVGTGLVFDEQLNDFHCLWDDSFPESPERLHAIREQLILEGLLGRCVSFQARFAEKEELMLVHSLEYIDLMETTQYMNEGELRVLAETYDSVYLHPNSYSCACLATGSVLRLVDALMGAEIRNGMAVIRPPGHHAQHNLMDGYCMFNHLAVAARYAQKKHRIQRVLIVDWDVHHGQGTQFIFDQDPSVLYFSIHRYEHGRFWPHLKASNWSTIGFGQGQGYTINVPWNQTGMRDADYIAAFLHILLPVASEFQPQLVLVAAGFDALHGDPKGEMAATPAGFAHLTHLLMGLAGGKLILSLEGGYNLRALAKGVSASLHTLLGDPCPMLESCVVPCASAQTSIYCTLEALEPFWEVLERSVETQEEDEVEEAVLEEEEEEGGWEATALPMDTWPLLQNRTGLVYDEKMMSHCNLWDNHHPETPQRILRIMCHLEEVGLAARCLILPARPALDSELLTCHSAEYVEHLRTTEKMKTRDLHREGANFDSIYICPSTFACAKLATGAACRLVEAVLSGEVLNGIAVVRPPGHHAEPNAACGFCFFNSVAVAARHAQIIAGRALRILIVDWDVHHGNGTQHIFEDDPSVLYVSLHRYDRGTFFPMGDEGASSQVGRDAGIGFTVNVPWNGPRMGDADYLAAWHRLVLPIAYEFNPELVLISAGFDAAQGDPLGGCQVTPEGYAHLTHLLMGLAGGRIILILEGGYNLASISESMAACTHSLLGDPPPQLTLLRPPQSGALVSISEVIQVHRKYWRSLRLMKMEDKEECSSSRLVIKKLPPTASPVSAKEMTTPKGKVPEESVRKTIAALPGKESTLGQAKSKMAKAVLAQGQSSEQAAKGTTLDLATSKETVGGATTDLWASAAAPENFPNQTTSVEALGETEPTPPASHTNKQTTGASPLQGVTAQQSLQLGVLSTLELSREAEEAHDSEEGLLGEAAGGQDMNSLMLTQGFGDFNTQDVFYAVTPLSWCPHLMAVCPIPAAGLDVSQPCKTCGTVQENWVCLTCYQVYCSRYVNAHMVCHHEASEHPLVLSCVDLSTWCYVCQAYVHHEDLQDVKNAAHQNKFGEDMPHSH
Kind of data set: Inhibition of HDAC6 in mouse 4TO7 cells assessed as induction of tubulin acetylation at 10 uM measured after 6 hrs by Western blot analysis. Type of data set: cell-based.

Data set [7] addresses T1, Protein deacetylase HDAC6 (Mus musculus). Kind of data set: Inhibition of HDAC6 in mouse B16-F10 cells assessed as induction of tubulin acetylation at 10 uM measured after 6 hrs by Western blot analysis. Type of data set: cell-based.
Data set [8] deals with Mus musculus. Kind of data set: Immunomodulatory activity in mouse 4T1 cells implanted BALB/c mouse assessed as reduction in M2 macrophage infiltration into tumors at 1.5 to 5 mg/kg, ip administered daily for 18 days by arginase 1 staining based immunofluorescence microscopy. To be noted: dose 1.5-5 mg/kg, time 18.0 day. In kind it is functional, organism-based.
The nature of data set [9]: Toxicity in 4T1 cells implanted BALB/c mouse assessed as stress at 1.5 to 5 mg/kg, ip administered daily for 18 days. In kind it is organism-based. To be noted: in vivo, 432 h, dose 1.5-5 mg/kg, time 18 day.
Data set [10] addresses Histone deacetylase 9 (Homo sapiens) (UniProt Q9UKV0). Kind of data set: Inhibition of human HDAC9 at 100 uM using Boc-Lys(trifluoroacetyl)-AMC as substrate by fluorogenic assay.
The subject of data set [11] is 4TO7. Kind of data set: Inhibition of class 1 HDAC in mouse 4TO7 cells assessed as induction of H3K27 acetylation at 10 uM measured after 6 hrs by Western blot analysis. In kind it is cell-based.
In data set [12] the test system is B16-F10. The data set is described as follows: Antitumor activity against mouse B16-F10 cells implanted in C57BL/6 mouse assessed as reduction in tumor burden at 5 mg/kg, ip administered every second day for 18 days. Type of data set: functional, organism-based. Conditions: time 18.0 day.
The subject of data set [13] is B16-F10. Kind of data set: Cytotoxicity against mouse B16-F10 cells assessed as reduction in cell viability at 0.01 to 100 uM measured after 24 hrs by RealTime-glo cell viability assay. Conditions: dose 0.01-100 µM. Type of data set: functional, cell-based.
The subject of data set [14] is B16-F10. Kind of data set: Inhibition of class 1 HDAC in mouse B16-F10 cells assessed as induction of H3K9 acetylation at 10 uM measured after 6 hrs by Western blot analysis. Type of data set: cell-based.
Data set [15] has as its system Mus musculus. Kind of data set: Immunomodulatory activity in mouse 4T1 cells implanted BALB/c mouse assessed as reduction in Ccl20 gene expression at 1.5 to 5 mg/kg, ip administered daily for 18 days by RT-qPCR analysis. To be noted: dose 1.5-5 mg/kg, time 18.0 day. Type of data set: functional, organism-based.
The target of data set [16] is T2, Vitamin D3 receptor (Mus musculus) (UniProt P48281).
T2 sequence (whole entry): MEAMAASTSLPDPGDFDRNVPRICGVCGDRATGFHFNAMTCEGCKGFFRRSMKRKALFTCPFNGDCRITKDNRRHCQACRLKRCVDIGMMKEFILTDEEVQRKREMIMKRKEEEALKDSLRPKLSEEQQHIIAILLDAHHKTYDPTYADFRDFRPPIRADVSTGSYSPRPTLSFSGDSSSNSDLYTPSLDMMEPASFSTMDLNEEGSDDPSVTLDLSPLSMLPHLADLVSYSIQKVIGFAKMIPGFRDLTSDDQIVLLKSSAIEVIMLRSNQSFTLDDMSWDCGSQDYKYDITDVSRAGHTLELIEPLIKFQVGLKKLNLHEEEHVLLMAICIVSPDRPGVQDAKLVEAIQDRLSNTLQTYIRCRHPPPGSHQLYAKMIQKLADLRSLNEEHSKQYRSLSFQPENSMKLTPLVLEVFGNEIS
The data set is described as follows: Agonist activity at VDR in mouse B16-F10 cells assessed as induction of Cyp24a1 gene at 1 to 10 uM measured after 24 hrs by RT-qPCR analysis. Type of data set: cell-based. Conditions: filed as agonist, dose 1-10 µM.

Data set [17] addresses Vitamin D3 receptor (Mus musculus) (UniProt P48281). The data set is described as follows: In vivo agonist activity at VDR in mouse B16-F10 cells implanted C57BL/6 mouse assessed as induction of VDR gene in tumor at 5 mg/kg, ip administered 2 times at 24 hrs interval by RT-qPCR analysis. To be noted: time 48.0 hrs.

Structures are written as SMILES. The source made the active and inactive calls. The rule behind the calls is not given here.

Sequence of Histone deacetylase 9 (Homo sapiens) (Q9UKV0 whole entry): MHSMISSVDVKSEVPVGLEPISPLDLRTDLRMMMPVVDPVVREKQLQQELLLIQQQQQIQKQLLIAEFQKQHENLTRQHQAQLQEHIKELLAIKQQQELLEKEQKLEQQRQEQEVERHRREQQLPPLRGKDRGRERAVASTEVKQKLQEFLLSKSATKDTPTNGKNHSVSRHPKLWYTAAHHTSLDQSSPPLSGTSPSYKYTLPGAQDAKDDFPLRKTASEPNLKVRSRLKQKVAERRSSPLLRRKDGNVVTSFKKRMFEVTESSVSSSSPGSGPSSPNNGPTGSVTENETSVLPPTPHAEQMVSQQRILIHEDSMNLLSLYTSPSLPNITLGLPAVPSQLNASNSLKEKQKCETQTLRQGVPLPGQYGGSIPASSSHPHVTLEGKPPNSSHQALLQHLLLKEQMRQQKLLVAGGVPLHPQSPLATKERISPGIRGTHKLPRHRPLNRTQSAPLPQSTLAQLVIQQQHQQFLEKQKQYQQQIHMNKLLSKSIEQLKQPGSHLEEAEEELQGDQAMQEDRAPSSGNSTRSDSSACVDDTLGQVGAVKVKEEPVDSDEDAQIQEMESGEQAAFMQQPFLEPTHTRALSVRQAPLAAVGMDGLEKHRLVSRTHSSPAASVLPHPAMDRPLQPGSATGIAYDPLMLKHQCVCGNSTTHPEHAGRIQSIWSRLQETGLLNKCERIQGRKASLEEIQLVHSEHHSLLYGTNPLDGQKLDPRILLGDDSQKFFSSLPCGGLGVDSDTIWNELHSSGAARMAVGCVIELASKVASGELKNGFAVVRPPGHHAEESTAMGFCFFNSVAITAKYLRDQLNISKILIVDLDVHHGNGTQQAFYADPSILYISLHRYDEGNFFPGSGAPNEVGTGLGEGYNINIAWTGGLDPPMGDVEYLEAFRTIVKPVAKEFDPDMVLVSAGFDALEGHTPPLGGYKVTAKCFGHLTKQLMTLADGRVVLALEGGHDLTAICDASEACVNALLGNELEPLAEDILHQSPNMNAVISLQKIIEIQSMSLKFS

With `CCC(CC)(c1ccc(C(=O)NCCCCC(=O)NO)cc1)c1ccc(OCC(O)C(C)(C)C)c(C)n1` (configuration not stated), the inhibition result was “Active; Induced Higher Levels Of Acetylation Than Saha” in the data set with 4TO7 [1]; “Active; Induced Higher Levels Of Acetylation Than Saha” in data set [6]; “Active; Acetylation Was Comparable Or Greater Than Saha” in data set [7]; “Not active; No Or Very Limited Inhibition Was Observed” in data set [10]; “Active; Induced Higher Levels Of Acetylation Than Saha” in the data set with 4TO7 [11]; “Active; Acetylation Was Comparable Or Greater Than Saha” with B16-F10 [14]. Also, the Activity result in data set [2] is “Non-toxic”; in data set [3] it was “Non-toxic”; in data set [4], “Non-toxic”; in the data set on Mus musculus [8] it was “Active; Compound Was Most Efficacious At Reducing The M2 Macrophages”; in data set [9], “Non-toxic”. Also, the outcome (in the data set on Mus musculus [5]; in the data set on B16-F10 [12]; in the data set with B16-F10 [13]; with Mus musculus [15]; in [16]; in data set [17]) was Active.
